Values quoted from earlier work as cited in paper PMC4939907 (Angewandte Chemie (International ed. in English), 2016).

Test system: cancer (e.g., HeLa) and normal (e.g., HS-5) cells
Details: cancer (e.g., HeLa) versus normal (e.g., HS-5) cells; ref 4c, 4d, 10b

Nap-D-Phe-D-Phe-D-pTyr
selectivity for cancer cells: selectively inhibits cancer cells
